Test results published in US20090306051A1, “Methods and compositions for the treatment of epilepsy, seizure disorders, and other CNS disorders” (priority 2004, published 2009).
Where two headings read alike, the source gives them in different places.

Columns and labels:
[1] = cited from earlier work; for T½: as printed in head of release profile table, Example 3
[2] = FIG. 2A, IR administration (memantine 20 mg bid, lamotrigine 200 mg qd); cited from earlier work
[3] = Release profile (cumulative fraction released from formulation matrix to serum or gut environment); type: physicochemical
[4] = system: mouse electroshock model; assay: Dose ranging study in seizure model (mouse electroshock model); type: in vivo; conditions: seizure model (e.g., mouse electroshock model)
Text: An isobolic experiment ensues where the drugs are combined in fractions of their EDXXs to add up to ED100 (i.e., ED50:ED50, ED25:ED75, etc.). The plot of the data is constructed. The experiment points that lie below the straight line between the ED50 points on the graph are indicative of synergy, points on the line are indicative of additive effects, and points above the line are indicative of inhibitory effects. The point of maximum deviation from the isobolic line is the optimal ratio. This is the optimal steady state ratio (Cratio,ss) and is adjusted based upon the component half-lives. Similar protocols may be applied in a wide variety of validated animal models.

NCC1(CC(=O)O)CCCCC1 [Gabapentin]
Human PK (t½) ([1]; humans): 6 h | Tmax ([1]; humans): 3 h

Nc1nnc(-c2cccc(Cl)c2Cl)c(N)n1 [Lamotrigine]
Human PK (t½) ([1]; humans): 12 h | Tmax ([1]; humans): 2 h | Tmax [2]: 2 h | T½ [2]: 12 h

CC12CC3CC(C)(C1)CC(N)(C3)C2 [Memantine, 1-amino-3,5-dimethyladamantane]
T½ [1]: MEMANTINE T½ = 60 hrs | cum. fraction ([3]; Time 1): 0.2 | cum. fraction ([3]; Time 2): 0.3 | cum. fraction ([3]; Time 4): 0.4 | cum. fraction ([3]; Time 8): 0.5 | cum. fraction ([3]; Time 12): 0.6 | cum. fraction ([3]; Time 16): 0.7 | cum. fraction ([3]; Time 20): 0.8 | cum. fraction ([3]; Time 24): 0.9 | Tmax [2]: 3 h | ED50 [4]: approximately 12 μM

NC(=O)N1c2ccccc2CC(=O)c2ccccc21 [Oxcarbazepine]
Human PK (t½) in hrs ([1]; humans): 2 hr for hrs | Tmax ([1]; humans): 4.5 h

CC1(C)O[C@@H]2[C@@H](CO[C@@]3(COS(N)(=O)=O)OC(C)(C)O[C@@H]23)O1 [Topiramate]
Human PK (t½) ([1]; humans): 21 h | Tmax ([1]; humans): 2 h | ED50 [4]: approximately 5 μM

NS(=O)(=O)Cc1noc2ccccc12 [Zonisamide]
T½ [1]: ZONISAMIDE T½ = 60 hrs | Human PK (t½) ([1]; humans): 63 h | Tmax ([1]; humans): 4 h | cum. fraction ([3]; Time 1): 0.2 | cum. fraction ([3]; Time 2): 0.3 | cum. fraction ([3]; Time 4): 0.4 | cum. fraction ([3]; Time 8): 0.5 | cum. fraction ([3]; Time 12): 0.6 | cum. fraction ([3]; Time 16): 0.7 | cum. fraction ([3]; Time 20): 0.8 | cum. fraction ([3]; Time 24): 0.9
